Results reported in ChEMBL document CHEMBL1649156, “Antianaerobic activity of sulopenem compared to six other agents” (2009).
Converted amounts (≈) assume the structure as drawn.

How the values were obtained:
Format in all cases: functional
Prevotella baroniae = assay: Antimicrobial activity in Prevotella baroniae by CLSI agar dilution method; settings: Segatella baroniae
Hoylesella oralis = assay: Antimicrobial activity in Prevotella oralis group by CLSI agar dilution method
Prevotella veroralis = assay: Antimicrobial activity in Prevotella veroralis by CLSI agar dilution method
Prevotella bergensis = assay: Antimicrobial activity in Prevotella bergensis by CLSI agar dilution method; settings: Hallella bergensis
Prevotella salivae = assay: Antimicrobial activity in Prevotella salivae by CLSI agar dilution method; settings: Segatella salivae
Hoylesella loescheii = assay: Antimicrobial activity in Prevotella loescheii by CLSI agar dilution method
Prevotella sp. = assay: Antimicrobial activity in Prevotella sp.by CLSI agar dilution method
[1] = tested on: Porphyromonas asaccharolytica; assay: Antimicrobial activity in Porphyromonas asaccharolytica by CLSI agar dilution method
Fusobacterium nucleatum = assay: Antimicrobial activity in Fusobacterium nucleatum by CLSI agar dilution method
[2] = tested on: Fusobacterium necrophorum; assay: Antimicrobial activity in Fusobacterium necrophorum by CLSI agar dilution method
Fusobacterium mortiferum = assay: Antimicrobial activity in Fusobacterium mortiferum by CLSI agar dilution method
Fusobacterium varium = assay: Antimicrobial activity in Fusobacterium varium by CLSI agar dilution method
Finegoldia magna = assay: Antimicrobial activity in Finegoldia magna by CLSI agar dilution method
Parvimonas micra = assay: Antimicrobial activity in Micromonas micros by CLSI agar dilution method
[3] = tested on: Peptostreptococcus anaerobius; assay: Antimicrobial activity in Peptostreptococcus anaerobius by CLSI agar dilution method
[4] = tested on: Peptoniphilus asaccharolyticus; assay: Antimicrobial activity in Peptoniphilus asaccharolyticus by CLSI agar dilution method
Anaerococcus tetradius = assay: Antimicrobial activity in Anaerococcus tetradius by CLSI agar dilution method
Anaerococcus prevotii = assay: Antimicrobial activity in Anaerococcus prevotii by CLSI agar dilution method
Lactobacillus = assay: Antimicrobial activity in Lactobacillus by CLSI agar dilution method
Bifidobacterium = assay: Antimicrobial activity in Bifidobacterium by CLSI agar dilution method
Cutibacterium acnes = assay: Antimicrobial activity in Propionibacterium acnes by CLSI agar dilution method
Actinomyces = assay: Antimicrobial activity in Actinomyces by CLSI agar dilution method
Eggerthella lenta [5] = assay: Antimicrobial activity in Eggerthella lenta by CLSI agar dilution method
Clostridium perfringens = assay: Antimicrobial activity in Clostridium perfringens by CLSI agar dilution method
Clostridioides difficile = assay: Antimicrobial activity in Clostridium difficile by CLSI agar dilution method
Clostridium sp. = assay: Antimicrobial activity in Clostridium sp. by CLSI agar dilution method
Clostridium tertium = assay: Antimicrobial activity in Clostridium tertium by CLSI agar dilution method
Thomasclavelia ramosa = assay: Antimicrobial activity in Clostridium ramosum by CLSI agar dilution method
Clostridium cadaveris = assay: Antimicrobial activity in Clostridium cadaveris by CLSI agar dilution method
[6] = tested on: Paraclostridium bifermentans; assay: Antimicrobial activity in Clostridium bifermentans by CLSI agar dilution method
[Clostridium] innocuum = Antimicrobial activity in Clostridium innocuum by CLSI agar dilution method
[7] = tested on: Paeniclostridium sordellii; assay: Antimicrobial activity in Clostridium sordellii by CLSI agar dilution method; settings: Paraclostridium sordellii
Clostridium butyricum = assay: Antimicrobial activity in Clostridium butyricum by CLSI agar dilution method
[8] = tested on: Enterocloster clostridioformis; assay: Antimicrobial activity in Clostridium clostridioforme by CLSI agar dilution method
Bacteroides fragilis [9] = assay: Antimicrobial activity in Bacteroides fragilis by CLSI agar dilution method
[10] = tested on: Bacteroides thetaiotaomicron; assay: Antimicrobial activity in Bacteroides thetaiotaomicron by CLSI agar dilution method
Bacteroides ovatus = assay: Antimicrobial activity in Bacteroides ovatus by CLSI agar dilution method
Phocaeicola vulgatus = assay: Antimicrobial activity in Bacteroides vulgatus by CLSI agar dilution method
[11] = tested on: Parabacteroides distasonis; assay: Antimicrobial activity in Bacteroides distasonis by CLSI agar dilution method
Bacteroides uniformis = assay: Antimicrobial activity in Bacteroides uniformis by CLSI agar dilution method
Bacteroides stercoris = assay: Antimicrobial activity in Bacteroides stercoris by CLSI agar dilution method
Prevotella bivia = assay: Antimicrobial activity in Prevotella bivia by CLSI agar dilution method
Prevotella buccae = assay: Antimicrobial activity in Prevotella buccae by CLSI agar dilution method; settings: Segatella buccae
[12] = tested on: Prevotella melaninogenica; assay: Antimicrobial activity in Prevotella melaninogenica by CLSI agar dilution method
Prevotella denticola = assay: Antimicrobial activity in Prevotella denticola by CLSI agar dilution method
Prevotella intermedia = assay: Antimicrobial activity in Prevotella intermedia by CLSI agar dilution method
Prevotella nigrescens = assay: Antimicrobial activity in Prevotella nigrescens by CLSI agar dilution method
Prevotella corporis = assay: Antimicrobial activity in Prevotella corporis by CLSI agar dilution method
Prevotella disiens = assay: Antimicrobial activity in Prevotella disiens by CLSI agar dilution method
Tissierella praeacuta = assay: Antimicrobial activity in Clostridium hastiforme by CLSI agar dilution method
Bacteroides fragilis [13] = assay: Antimicrobial activity in Bacteroides fragilis ATCC 25285 by CLSI agar dilution method
[14] = tested on: Bacteroides thetaiotaomicron; assay: Antimicrobial activity in Bacteroides thetaiotaomicron ATCC 29741 by CLSI agar dilution method
Eggerthella lenta [15] = assay: Antimicrobial activity in Eggerthella lenta ATCC 43055 by CLSI agar dilution method
Porphyromonas gingivalis = assay: Antimicrobial activity in Porphyromonas gingivalis by CLSI agar dilution method

With `C[C@@H](O)[C@H]1C(=O)N2C(C(=O)O)=C(S[C@H]3CC[S@@+]([O-])C3)S[C@H]12` [SULOPENEM] the MIC (Prevotella baroniae) was 0.06 µg/mL (≈ 0.172 µM), the MIC (Hoylesella oralis) was at most 0.016 µg/mL and the MIC (Prevotella veroralis) was 0.06 µg/mL (≈ 0.172 µM). It also gave an MIC (Prevotella bergensis) of 0.125 µg/mL (≈ 0.358 µM), an MIC (Prevotella salivae) of 0.06 µg/mL (≈ 0.172 µM) and an MIC (Hoylesella loescheii) of 0.125 µg/mL (≈ 0.358 µM). It also gave an MIC (Prevotella sp.) of 0.03 µg/mL (≈ 0.0858 µM), an MIC [1] of at most 0.016 µg/mL and an MIC (Fusobacterium nucleatum) of at most 0.016 µg/mL. The MIC50 (Fusobacterium nucleatum) was at most 0.016 µg/mL, the MIC90 (Fusobacterium nucleatum) was 0.03 µg/mL (≈ 0.0858 µM) and the MIC [2] was at most 0.016 µg/mL. For the same molecule, the MIC50 [2] was at most 0.016 µg/mL, the MIC50 (Fusobacterium mortiferum) was 0.5 µg/mL (≈ 1.43 µM) and the MIC90 (Fusobacterium mortiferum) was 0.5 µg/mL (≈ 1.43 µM). For the same molecule, the MIC50 (Fusobacterium varium) was 0.5 µg/mL (≈ 1.43 µM), the MIC90 (Fusobacterium varium) was 0.5 µg/mL (≈ 1.43 µM) and the MIC50 (Finegoldia magna) was 0.25 µg/mL (≈ 0.715 µM). For the same molecule, the MIC90 (Finegoldia magna) was 0.25 µg/mL (≈ 0.715 µM), the MIC (Parvimonas micra) was 0.125 µg/mL (≈ 0.358 µM) and the MIC50 (Parvimonas micra) was 0.125 µg/mL (≈ 0.358 µM). For the same molecule, the MIC90 (Parvimonas micra) was 0.125 µg/mL (≈ 0.358 µM), the MIC50 [3] was 0.5 µg/mL (≈ 1.43 µM) and the MIC90 [3] was 2 µg/mL (≈ 5.72 µM). It also gave an MIC [4] of 0.03 µg/mL (≈ 0.0858 µM), an MIC50 [4] of 0.06 µg/mL (≈ 0.172 µM) and an MIC50 (Anaerococcus tetradius) of 0.125 µg/mL (≈ 0.358 µM). It also gave an MIC90 (Anaerococcus tetradius) of 0.25 µg/mL (≈ 0.715 µM), an MIC (Anaerococcus prevotii) of 0.03 µg/mL (≈ 0.0858 µM) and an MIC50 (Lactobacillus) of over 8 µg/mL. For the same molecule, the MIC90 (Lactobacillus) was over 8 µg/mL, the MIC50 (Bifidobacterium) was 0.25 µg/mL (≈ 0.715 µM) and the MIC90 (Bifidobacterium) was 1 µg/mL (≈ 2.86 µM). The MIC (Cutibacterium acnes) was 0.125 µg/mL (≈ 0.358 µM), the MIC50 (Cutibacterium acnes) was 0.125 µg/mL (≈ 0.358 µM) and the MIC90 (Cutibacterium acnes) was 0.25 µg/mL (≈ 0.715 µM). For the same molecule, the MIC (Actinomyces) was 0.25 µg/mL (≈ 0.715 µM), the MIC50 (Actinomyces) was 0.5 µg/mL (≈ 1.43 µM) and the MIC (Eggerthella lenta [5]) was 1 µg/mL (≈ 2.86 µM). For the same molecule, the MIC50 (Eggerthella lenta [5]) was 1 µg/mL (≈ 2.86 µM), the MIC90 (Eggerthella lenta [5]) was 1 µg/mL (≈ 2.86 µM) and the MIC50 (Clostridium perfringens) was 0.125 µg/mL (≈ 0.358 µM). It also gave an MIC90 (Clostridium perfringens) of 0.25 µg/mL (≈ 0.715 µM), an MIC (Clostridioides difficile) of 2 µg/mL (≈ 5.72 µM) and an MIC50 (Clostridioides difficile) of 2 µg/mL (≈ 5.72 µM). The MIC90 (Clostridioides difficile) was 4 µg/mL (≈ 11.4 µM), the MIC50 (Clostridium sp.) was 2 µg/mL (≈ 5.72 µM) and the MIC90 (Clostridium sp.) was 4 µg/mL (≈ 11.4 µM). For the same molecule, the MIC (Clostridium tertium) was 1 µg/mL (≈ 2.86 µM), the MIC50 (Clostridium tertium) was 1 µg/mL (≈ 2.86 µM) and the MIC (Thomasclavelia ramosa) was 0.5 µg/mL (≈ 1.43 µM). The MIC (Clostridium cadaveris) was 0.25 µg/mL (≈ 0.715 µM), the MIC [6] was 0.5 µg/mL (≈ 1.43 µM) and the MIC ([Clostridium] innocuum) was 0.25 µg/mL (≈ 0.715 µM). The MIC [7] was 0.125 µg/mL (≈ 0.358 µM), the MIC (Clostridium butyricum) was 0.5 µg/mL (≈ 1.43 µM) and the MIC [8] was 1 µg/mL (≈ 2.86 µM). It also gave an MIC50 (Bacteroides fragilis [9]) of 0.125 µg/mL (≈ 0.358 µM), an MIC90 (Bacteroides fragilis [9]) of 0.5 µg/mL (≈ 1.43 µM) and an MIC [10] of 0.25 µg/mL (≈ 0.715 µM). The MIC50 [10] was 0.25 µg/mL (≈ 0.715 µM), the MIC90 [10] was 0.5 µg/mL (≈ 1.43 µM) and the MIC (Bacteroides ovatus) was 0.25 µg/mL (≈ 0.715 µM). For the same molecule, the MIC50 (Bacteroides ovatus) was 0.25 µg/mL (≈ 0.715 µM), the MIC90 (Bacteroides ovatus) was 0.5 µg/mL (≈ 1.43 µM) and the MIC50 (Phocaeicola vulgatus) was 0.5 µg/mL (≈ 1.43 µM). The MIC90 (Phocaeicola vulgatus) was 1 µg/mL (≈ 2.86 µM), the MIC50 [11] was 0.5 µg/mL (≈ 1.43 µM) and the MIC90 [11] was 1 µg/mL (≈ 2.86 µM). For the same molecule, the MIC (Bacteroides uniformis) was 0.25 µg/mL (≈ 0.715 µM), the MIC50 (Bacteroides uniformis) was 0.25 µg/mL (≈ 0.715 µM) and the MIC (Bacteroides stercoris) was 0.25 µg/mL (≈ 0.715 µM). For the same molecule, the MIC50 (Bacteroides stercoris) was 0.25 µg/mL (≈ 0.715 µM), the MIC50 (Prevotella bivia) was 0.125 µg/mL (≈ 0.358 µM) and the MIC90 (Prevotella bivia) was 0.25 µg/mL (≈ 0.715 µM). For the same molecule, the MIC50 (Prevotella buccae) was 0.125 µg/mL (≈ 0.358 µM), the MIC90 (Prevotella buccae) was 0.25 µg/mL (≈ 0.715 µM) and the MIC50 [12] was 0.125 µg/mL (≈ 0.358 µM). It also gave an MIC90 [12] of 0.25 µg/mL (≈ 0.715 µM), an MIC50 (Prevotella denticola) of 0.125 µg/mL (≈ 0.358 µM) and an MIC90 (Prevotella denticola) of 0.25 µg/mL (≈ 0.715 µM). The MIC50 (Prevotella intermedia) was 0.06 µg/mL (≈ 0.172 µM), the MIC90 (Prevotella intermedia) was 0.125 µg/mL (≈ 0.358 µM) and the MIC50 (Prevotella nigrescens) was 0.06 µg/mL (≈ 0.172 µM). The MIC90 (Prevotella nigrescens) was 0.125 µg/mL (≈ 0.358 µM), the MIC (Prevotella corporis) was 0.03 µg/mL (≈ 0.0858 µM) and the MIC50 (Prevotella corporis) was 0.06 µg/mL (≈ 0.172 µM). For the same molecule, the MIC (Prevotella disiens) was 0.03 µg/mL (≈ 0.0858 µM), the MIC50 (Prevotella disiens) was 0.125 µg/mL (≈ 0.358 µM) and the MIC (Tissierella praeacuta) was 2 µg/mL (≈ 5.72 µM). For the same molecule, the MIC (Bacteroides fragilis [13]) was 0.06 µg/mL (≈ 0.172 µM), the MIC [14] was 0.06 µg/mL (≈ 0.172 µM) and the MIC (Eggerthella lenta [15]) was 0.06 µg/mL (≈ 0.172 µM). The MIC (Porphyromonas gingivalis) was 0.03 µg/mL (≈ 0.0858 µM).
